The source of these data is a melting point compilation (Tetko et al.).

Each structure is given as a SMILES string.

The melting point is the temperature of the solid-liquid transition.

Regarding `COc1ccc2c(CC(=O)O)cc(=O)oc2c1`, the melting point lay within 183 to 187 °C.

In the case of `O=C(CCl)Nc1ccccc1OC(F)F`, the melting point was 92 to 94 °C.

On to `NC(=O)C1CCCN(C(=O)c2cc(Cl)ccc2N)C1` (configuration not stated), for which the melting point is 229 to 231 °C. For `Cc1ccnc(Cl)c1O` the value was 97 to 99 °C; for `O=C(O)C1CCN(S(=O)(=O)c2cccs2)CC1`, 133 to 135 °C. For `O/N=C1\CCN2CCCCC12` (configuration not stated) the value was 96 to 98 °C. To `Cc1ccc2cc(C(=O)O)c(C)nc2c1` belongs 197 to 199 °C; to `N#CCCNc1cccc(Cl)c1`, 141 to 143 °C; to `CN(C)C(=O)COc1ccccc1C(=O)O`, 127 to 129 °C. In the case of `CCOC(=O)c1c(Cl)c2ncc(S(=O)(=O)Cl)cc2n1C`, the melting point was in the range of 141 to 143 °C. To `OC1CCC(c2ccccc2)CC1` (configuration not stated) belongs 117 to 119 °C; to `O=C(O)c1ccc2c(c1)[nH]c(=O)n2C1CCCC1`, 315 to 317 °C.

With `O=C(NC=C(Cl)Cl)c1cccc(Br)c1`, the melting point is 91 to 93 °C. In turn, `COC(=O)c1cc2c(nc1N)CCC2` registered a melting point of 132 to 134 °C.

Take `NS(=O)(=O)c1ccc(/C=C/C(=O)O)cc1`: the melting point was 274 to 276 °C.

On to `NC(=O)C1CN(C(=O)CCl)c2ccccc2O1` (configuration not stated), for which the melting point is 133 to 135 °C. The compound `O=[N+]([O-])c1cc(C(F)(F)F)ccc1I` had a melting point of 34 to 36 °C.

The compound `OCC1CSc2ccccc2O1` (configuration not stated) displayed a melting point of 89 to 91 °C. For `CC(=O)c1cccc(-n2cnnn2)c1`, the melting point is 155 to 157 °C. For the compound `Cc1oncc1C(=O)Nc1ccc(C(=O)O)c(O)c1`, the melting point was in the range of 214 to 216 °C. For `CC(NC(=O)Oc1ccccc1)C(=O)O` (configuration not stated), the melting point was in the range of 122 to 124 °C. For `O=Cc1csc(-c2ccccn2)n1` the value was 130 to 132 °C; for `NC(=S)CC1CC1`, 68 to 70 °C. `NS(=O)(=O)c1c[nH]c(C(=O)O)c1` returned a melting point of 229 to 231 °C.

`NS(=O)(=O)c1cccc(NC(=O)c2ccccc2Cl)c1` had a melting point of 93 to 96 °C. Compound `C1CNc2nn[nH]c2C1` showed a melting point of 163 to 165 °C. For `N#CCC1(Sc2ccccc2N)CCCC1` the value was 89 to 91 °C; for `O=C(O)c1nn(-c2cccc(F)c2)ccc1=O`, 219 to 221 °C. Compound `COC(=O)c1cc(-c2ccccc2)nc2ccccc12` showed a melting point of 60 to 62 °C. For `COC(=O)c1n[nH]c2ccc(N)cc12` the value was 181 to 183 °C. To `C#CCNC(=O)Nc1ccccc1Cl` belongs 173 to 175 °C; to `O=C1NCCc2c(Br)cccc21`, 109 to 111 °C.

Compound `CCN(C(=O)OC(C)(C)C)C(C(N)=S)c1cccnc1` (configuration not stated) showed a melting point of 139 to 141 °C. For `CCOC(=O)c1c(C)oc2ccc(O)cc12`, the melting point is 136 to 138 °C.

On to `N#Cc1ccc2[nH]cnc2c1`, for which the melting point is 203 to 205 °C. For `Cn1c(S)nnc1-c1cncc(N)c1` the value was 206 to 208 °C; for `Cc1ccc(S(=O)(=O)Nc2cccc(C(F)(F)F)c2)cc1N`, 116 to 118 °C; for `O=C(CCl)Nc1ccc(N2CCCCC2)nc1`, 139 to 141 °C. For `N#Cc1ccc([N+](=O)[O-])cc1F` the value was 69 to 71 °C. Consider `N#Cc1c([N+](=O)[O-])cccc1S(=O)(=O)Cl`, for which the melting point fell in the range of 89 to 91 °C.

The compound `O=[N+]([O-])c1cc(CCl)c2c(c1)COCO2` came in with a melting point of 94 to 96 °C. Turning to `CCOC(=O)C1=C(C)NC(C)=C(C(=O)O)C1c1cccc([N+](=O)[O-])c1` (configuration not stated), the melting point fell in the range of 199 to 201 °C. For `Cc1ccc(C)c(-c2cnnc(N)n2)c1` the value was 179 to 181 °C; for `NC(=O)CNC(=O)c1cccc(O)c1`, 179 to 181 °C; for `NC(=O)C=Cc1cccnc1`, 149 to 151 °C. To `CC1CN(S(=O)(=O)c2ccc(C(=O)O)cc2)CC(C)O1` (configuration not stated) belongs 268 to 270 °C; to `O=C(O)c1cc(S(=O)(=O)Cl)c(Br)s1`, 109 to 111 °C.
